The text below walks through data of patent publication US8034811B2, “Hydroxamic acid esters and pharmaceutical use thereof” (Leo Pharma A/S, priority 2003, dated 2011).

For the assay, the target named is T1, human intracellular domain of KDR (VEGF Receptor-2) (Homo sapiens, UniProt P35968).
T1 construct: A fusion protein containing the intracellular domain (amino acids 793 to 1357) of the KDR and N-terminally tagged to GST; made in house; host or cells: Sf9 insect cells (baculovirus, pDEST20) for GST-KDR-cyt; E. coli BL21 (pGEX-4T-1) for GST-PLCγ
T1 sequence (P35968 794-1356 limits assumed): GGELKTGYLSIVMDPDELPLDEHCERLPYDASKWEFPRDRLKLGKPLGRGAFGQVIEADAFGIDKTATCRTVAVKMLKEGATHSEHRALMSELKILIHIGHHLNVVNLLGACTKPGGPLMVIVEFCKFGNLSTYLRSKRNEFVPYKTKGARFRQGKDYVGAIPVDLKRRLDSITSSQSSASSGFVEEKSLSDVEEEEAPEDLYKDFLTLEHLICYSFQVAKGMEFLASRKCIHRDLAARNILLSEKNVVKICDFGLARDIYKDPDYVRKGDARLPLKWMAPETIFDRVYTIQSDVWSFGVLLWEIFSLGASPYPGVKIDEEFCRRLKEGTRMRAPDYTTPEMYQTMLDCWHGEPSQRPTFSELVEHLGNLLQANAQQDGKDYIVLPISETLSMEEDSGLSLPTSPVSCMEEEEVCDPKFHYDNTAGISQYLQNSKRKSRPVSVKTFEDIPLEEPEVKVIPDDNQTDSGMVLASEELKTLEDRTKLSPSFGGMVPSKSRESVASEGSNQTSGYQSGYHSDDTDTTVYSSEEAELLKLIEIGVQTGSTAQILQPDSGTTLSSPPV
In words: In vitro KDR kinase assay. Format: biochemical. The following applies: IC50 as molar concentration; GST-KDR-cyt, substrate phospholipase Cγ, ATP 100 μM, 30 min room temperature, time-resolved fluorometry. The method, boiled down:
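Sf9-expressed, constitutively active human KDR intracellular domain, diluted 3000–3500 fold, incubated 30 min at room temperature with 100 μM ATP on phospholipase Cγ-coated wells in TBS pH 7.4 with Mg acetate, compounds up to 10 μM, 0.1% DMSO max. Phosphotyrosine detected by Eu-PY-20 time-resolved fluorescence; IC50 by linear interpolation around 50% inhibition.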
In general, IC50 refers to the midpoint of a concentration-inhibition curve. Low values mean inhibition by little substance, high ones a need for much substance. Turning to `N#Cc1ccc(CONC(=O)c2ccccc2NCc2ccnc(N)c2)cc1` [Compound 206, 2-[(2-Amino-pyridin-4-ylmethyl)-amino]-N-(4-cyano-benzyloxy)-benzamide], the IC50 was 39.8 nM.

The molecule `O=C(NOCc1ccc(F)cc1)c1ccccc1NCc1ccnc(N2CCOCC2)c1` [Compound 207, N-(4-Fluoro-benzyloxy)-2-[(2-morpholin-4-yl-pyridin-4-ylmethyl)-amino]-benzamide] had an IC50 of 79.4 nM.

`CS(=O)(=O)Nc1cc(CNc2ccccc2C(=O)NOCC2CCCC2)ccn1` [Compound 208, N-Cyclopentylmethoxy-2-[(2-methanesulfonylamino-pyridin-4-ylmethyl)-amino]-benzamide] gave a concentration for half-maximal inhibition (IC50) of 79.4 nM.

In turn, `CNC(=O)Nc1cc(CNc2ccccc2C(=O)NOCc2ccc(C#N)cc2)ccn1` [Compound 210, N-(4-Cyano-benzyloxy)-2-{[2-(3-methyl-ureido)-pyridin-4-ylmethyl]-amino}-benzamide] gave an IC50 of 7.94 nM.

Take `CNC(=O)Nc1cc(CNc2ccccc2C(=O)NOCc2ccc(C#N)cc2OC)ccn1` [Compound 211, N-(4-Cyano-2-methoxy-benzyloxy)-2-{[2-(3-methyl-ureido)-pyridin-4-ylmethyl]-amino}-benzamide]: the IC50 is 20 nM.

`CNC(=O)Nc1cc(CNc2ccccc2C(=O)NOCC2CCCC2)ccn1` [Compound 212, N-Cyclopentylmethoxy-2-{[2-(3-methyl-ureido)-pyridin-4-ylmethyl]-amino}-benzamide] showed an IC50 of 10 nM.

With `CNC(=O)Nc1cc(CNc2ccccc2C(=O)NOCc2ccc(C)c(F)c2F)ccn1` [Compound 213, N-(2,3-Difluoro-4-methyl-benzyloxy)-2-{[2-(3-methyl-ureido)-pyridin-4-ylmethyl]-amino}-benzamide], half-maximal inhibition (IC50) was put at 7.94 nM.

`CCOC(=O)CNC(=O)Nc1cc(CNc2ccccc2C(=O)NOCc2ccc(C#N)cc2)ccn1` [compound 214]: the half-maximal inhibitory concentration (IC50) is 50.1 nM.

The molecule `CCOC(=O)CNC(=O)Nc1cc(CNc2ccccc2C(=O)NOCC2CCCC2)ccn1` [compound 215] had an IC50 of 63.1 nM.

In the case of `N#Cc1ccc(CONC(=O)c2ccccc2NCc2ccnc(NC(=O)NCC(=O)O)c2)cc1` [compound 216], the IC50 is 10 nM.

`O=C(O)CNC(=O)Nc1cc(CNc2ccccc2C(=O)NOCC2CCCC2)ccn1` [compound 217]: the IC50 is 7.94 nM.

For the molecule `C=C(C)C(=O)OCCNC(=O)Nc1cc(CNc2ccccc2C(=O)NOCC2CCCC2)ccn1` [compound 219], 39.8 nM corresponded to half-maximal inhibition (IC50).

The molecule `N#Cc1ccc(CONC(=O)c2ccccc2NCc2ccnc(NC(=O)NCCO)c2)cc1` [compound 220] showed an IC50 of 7.94 nM.

`O=C(NCCO)Nc1cc(CNc2ccccc2C(=O)NOCC2CCCC2)ccn1` [compound 221] gave an IC50 of 7.94 nM.

`CC(=O)OCC(=O)Nc1cc(CNc2ccccc2C(=O)NOCc2ccc(C#N)cc2)ccn1` [compound 222]: the IC50 was 6.31 nM.

Consider `CC(=O)OCC(=O)Nc1cc(CNc2ccccc2C(=O)NOCC2CCCC2)ccn1` [compound 223], for which half-maximal inhibition (IC50) required 31.6 nM.

In the case of `N#Cc1ccc(CONC(=O)c2ccccc2NCc2ccnc(NC(=O)CO)c2)cc1` [compound 224], the IC50 is 6.31 nM.

As for `CCOC(=O)Nc1cc(CNc2ccccc2C(=O)NOCc2ccc(C#N)cc2)ccn1` [compound 225], the IC50 was 7.94 nM.

`N#Cc1ccc(CONC(=O)c2ccccc2NCc2ccnc(NC(=O)C3CC3)c2)cc1` [compound 226]: the IC50 was 6.31 nM.

Consider `O=C(NOCC1CCCC1)c1ccccc1NCc1ccnc(NC(=O)C2CC2)c1` [compound 227], for which 5.01 nM corresponded to half-maximal inhibition (IC50).

Regarding `O=C(CC1NC(=O)NC1=O)Nc1cc(CNc2ccccc2C(=O)NOCC2CCCC2)ccn1` (stereo not drawn) [compound 228], the IC50 was 6.31 nM.

`Nc1cc(CNc2ccccc2C(=O)NOCC2CCCC2)ccn1` [compound 229]: 7.94 nM corresponded to half-maximal inhibition (IC50).

Turning to `O=C(NOCc1ccccc1)c1ccccc1NCc1ccnc2ccccc12` [compound 230], 25.1 nM corresponded to half-maximal inhibition (IC50).

For `N#Cc1ccc(CONC(=O)c2ccccc2NCc2ccnc3ccccc23)cc1` [compound 231], the IC50 was 39.8 nM.
